Among the data in PubChem BioAssay (NCI) are TGI values, retold here.

Common to all, as to assay: NCI tumour cell line growth inhibition, 48 h
Test [1] concerns M14 melanoma.
The subject of test [2] is ACHN renal.
Test [3] concerns RPMI-8226 leukemia.
Test [4] has as its system SF-268 CNS.
Test [5] relates to COLO 205 colon.
In test [6] the test system is A498 renal.
Test [7] deals with OVCAR-3 ovarian.
The test system of test [8] is CCRF-CEM leukemia.
Test [9] relates to SF-539 CNS.
In test [10] the test system is CAKI-1 renal.

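Protocol summary: plate cells (96-well), add compound at 5 concentrations, incubate 48 h, interpolate endpoints linearly. The concentration for full growth arrest is given as TGI.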

As to `c1ccc2c(c1)NC(C1OC3CCCN3C1C1Nc3ccccc3S1)S2` (stereo not given), the TGI in test [1] is greater than 100 µM; in test [2], greater than 100 µM; in test [3], 76.3 µM; in test [4], greater than 100 µM; in [5] it was greater than 100 µM; in test [6] it was greater than 100 µM. Moreover, the TGI in test [7], in test [8], in test [9] and in test [10] was greater than 100 µM in each case.

Regarding `CC(C)/C(Cl)=N\OC(=O)Nc1ccc(C#N)cc1`, the TGI came to 7.85 µM in [1]; 19 µM in [2]; 6.88 µM in test [3]; 36.7 µM in test [4]; 3.24 µM in [5]; 27.7 µM in test [6]. The TGI in test [7] was determined as 30.5 µM; in test [8], 6.85 µM; in test [9] it was 29.4 µM; in [10], 10.3 µM.

For `COc1ccc(C(OCC2OC(n3cc(C)c(=O)[nH]c3=O)CC2n2cc(Cn3cc(F)c(=O)[nH]c3=O)nn2)(c2ccccc2)c2ccccc2)cc1` (stereo not given), the TGI in test [1] was 27.9 µM; in [2] it was 27.2 µM; in test [3], 8.93 µM; in test [4] it was 35 µM; in [5] it was 27 µM; in [6], 28.6 µM. Moreover, the TGI was 19.6 µM in test [7], 9.85 µM in test [8], 23.9 µM in test [9] and 25 µM in test [10].

Take `O=c1c2cc3c(cc2[nH]c2ncccc12)OCO3`: the TGI in test [1], in test [2], in test [3], in test [4], in test [5] and in test [6] was greater than 10 µM in each case. Also, the TGI in test [7], in test [8], in [9] and in test [10] was greater than 10 µM each time.

Turning to `CO[C@]12CC(=O)C3(C(C[C@H]4CC5CC=C6C[C@@H](OC(C)=O)CC[C@]6(OC(C)=O)C5C[C@@]43C)C1)C1C[C@H]3[C@@H]4CC=C5C[C@@H](OC(C)=O)CC[C@]5(OC(C)=O)[C@H]4CC[C@]3(C)C12` (stereo not given in full), the TGI in [1] was 47.2 µM; in [2] it was greater than 100 µM; in test [3] it was greater than 100 µM; in [4], greater than 100 µM; in [5], 12.7 µM; in [6], 66.1 µM. The TGI in [7] was 56.4 µM; in test [8], greater than 100 µM; in [9], 37.2 µM; in test [10] it was 34.3 µM.

Regarding `COc1ccc(C2(CC(C)O)SCCCS2)cc1` (stereo not given), the TGI in test [1], in [2], in test [3], in test [4], in [5] and in test [6] was greater than 100 µM in each case. For the same molecule, the TGI in test [7], in [8], in [9] and in test [10] was greater than 100 µM in each case.

As for `CC1(C)N=C(C(N)=O)c2ncn(CCCO)c2N1`, the TGI in test [1], in test [2], in test [3], in [4], in test [5] and in test [6] was greater than 100 µM each time. Moreover, the TGI in test [7], in test [8], in [9] and in [10] was greater than 100 µM each time.

Turning to `O=C(NCCN1CCOCC1)c1ccc2cc(C(=O)N3CC(CCl)c4ccc([N+](=O)[O-])cc43)[nH]c2c1` (stereo not given), the TGI in test [1] was greater than 100 µM; in test [2] it was 45.2 µM; in test [3], 9.09 µM; in test [4], 31.3 µM; in test [5] it was greater than 100 µM; in test [6] it was 20 µM. The TGI is 33.1 µM in test [7], greater than 100 µM in test [8], greater than 100 µM in test [9] and 52.4 µM in test [10].

Take `CC12CC(=O)C3C(C(=O)C1)C32C` (stereo not given): the TGI in test [1], in test [2], in test [3], in test [4], in test [5] and in [6] was greater than 100 µM throughout. Besides, the TGI in [7], in test [8], in test [9] and in test [10] was greater than 100 µM each time.

As to `Cc1csc(-c2cn(C)c3c2C(=O)C(N)=CC3=O)n1`, the TGI was greater than 47.4 µM in test [1]; greater than 52.1 µM in test [2]; greater than 22.8 µM in [3]; greater than 100 µM in [4]; greater than 100 µM in test [5]; greater than 100 µM in test [6]. For the same molecule, the TGI in [7] is greater than 67.3 µM; in [8], greater than 100 µM; in [9], greater than 100 µM; in test [10] it was greater than 64.4 µM.

Regarding `CCCCC1c2c([nH]c3ccccc23)C2C(=O)N(c3ccc(OC)cc3)C(=O)C2C1CCC` (stereo not given), the TGI was 8.53 µM in [1]; greater than 10 µM in test [2]; 8.99 µM in test [3]; greater than 10 µM in test [4]; 6.34 µM in test [5]; 6.71 µM in [6]. Also, the TGI is 6.26 µM in [7], 9.12 µM in test [8], 5.11 µM in test [9] and 6.25 µM in [10].

On to `N#CC(C#N)=CNC(=S)c1ccncc1`, for which the TGI in test [1], in [2], in test [3], in test [4], in test [5] and in test [6] was greater than 100 µM in each case. For the same molecule, the TGI was 1.36 µM in [7], greater than 100 µM in test [8], 68.4 µM in test [9] and greater than 100 µM in test [10].
